Laboratory results reported in patent US9598362B2, “Benzidine derivative, method for preparing same, and pharmaceutical composition containing benzidine derivative for treating liver disease caused by hepatitis C virus” (priority 2013, dated 2017).
Where two headings read alike, the source gives them in different places.

What was measured:
hERG = hERG (Homo sapiens, UniProt Q12809); experiment: hERG ligand binding, fluorescence polarization with red fluorescent hERG channel ligand
HCV (JFH-5aFlucm4) = experiment: Evaluation of anti-HCV activity 1: huh7.5.1 cells inoculated with HCV carrying renilla luciferase reporter; type: cell-based; conditions: Hepatitis C virus
Procedure: To evaluate the anti-HCV activity of the compound represented by formula 1 of the present invention, the following experiment was performed.
The hepatoma cell line huh7.5.1 was distributed in a 12-well cell culture plate at the density of 50,000 cells/well. The cells were cultured in DMEM (Dulbecco's Modified Eagle's Medium 12800-017, GIBCO Co.) supplemented with 10% (v/v) FBS (Fetal Bovine Serum SH30406.02, Hyclone Co.) and 1% (v/v) antibiotics (penicillin/streptomycin solution SV30010, Hyclone Co.) in a 37° C. 6.0% CO2 incubator (CO2 Incubator 311, Forma Scientific Co, Lnc. USA) for 24 hours to lead cell attachment on the plate. Then, the cells were inoculated with HCV (JFH-5aFlucm4, PLoS One. 2011; 6(8):e228808.) having renilla luciferase gene as a reporter for 3 hours. Upon completion of the virus inoculation, the cell culture medium was replaced with the medium containing the compounds prepared in Examples 1˜24 at the concentration of 1 μM each. The cells were cultured in a 37° C. 6.0% CO2 incubator (CO2 Incubator 311, Forma Scientific Co, Lnc. USA) for 3 days. Three days after the infection, the cell culture medium was collected to measure the cytotoxicity in the following Experimental Example 3. The cells attached on the plate were washed with PBS (phosphate buffered saline) and then lysed by treating 100 μl of 1× passive lysis buffer (Promega, E1941). The cell lysate (10 μl) was added to renilla luciferase assay reagent (50 μl) in renilla luciferase assay system (Promega, E2820), followed by measurement of luminescence for 10 seconds using the luciferase measure program with Luminometer (GLOMAX 20/20 Luminometer, Promega). At this time, the measurement of luminescence was performed in triplicate with the groups treated with the compounds of Examples 1˜24 and the non-treated control group. The mean value was calculated and compared. The luminescence of each compound over the concentration was converted into EC50 (half maximal effective concentration) by using sigma plot program, and the results are shown in Table 2.

hERG, sequence (Q12809 whole entry): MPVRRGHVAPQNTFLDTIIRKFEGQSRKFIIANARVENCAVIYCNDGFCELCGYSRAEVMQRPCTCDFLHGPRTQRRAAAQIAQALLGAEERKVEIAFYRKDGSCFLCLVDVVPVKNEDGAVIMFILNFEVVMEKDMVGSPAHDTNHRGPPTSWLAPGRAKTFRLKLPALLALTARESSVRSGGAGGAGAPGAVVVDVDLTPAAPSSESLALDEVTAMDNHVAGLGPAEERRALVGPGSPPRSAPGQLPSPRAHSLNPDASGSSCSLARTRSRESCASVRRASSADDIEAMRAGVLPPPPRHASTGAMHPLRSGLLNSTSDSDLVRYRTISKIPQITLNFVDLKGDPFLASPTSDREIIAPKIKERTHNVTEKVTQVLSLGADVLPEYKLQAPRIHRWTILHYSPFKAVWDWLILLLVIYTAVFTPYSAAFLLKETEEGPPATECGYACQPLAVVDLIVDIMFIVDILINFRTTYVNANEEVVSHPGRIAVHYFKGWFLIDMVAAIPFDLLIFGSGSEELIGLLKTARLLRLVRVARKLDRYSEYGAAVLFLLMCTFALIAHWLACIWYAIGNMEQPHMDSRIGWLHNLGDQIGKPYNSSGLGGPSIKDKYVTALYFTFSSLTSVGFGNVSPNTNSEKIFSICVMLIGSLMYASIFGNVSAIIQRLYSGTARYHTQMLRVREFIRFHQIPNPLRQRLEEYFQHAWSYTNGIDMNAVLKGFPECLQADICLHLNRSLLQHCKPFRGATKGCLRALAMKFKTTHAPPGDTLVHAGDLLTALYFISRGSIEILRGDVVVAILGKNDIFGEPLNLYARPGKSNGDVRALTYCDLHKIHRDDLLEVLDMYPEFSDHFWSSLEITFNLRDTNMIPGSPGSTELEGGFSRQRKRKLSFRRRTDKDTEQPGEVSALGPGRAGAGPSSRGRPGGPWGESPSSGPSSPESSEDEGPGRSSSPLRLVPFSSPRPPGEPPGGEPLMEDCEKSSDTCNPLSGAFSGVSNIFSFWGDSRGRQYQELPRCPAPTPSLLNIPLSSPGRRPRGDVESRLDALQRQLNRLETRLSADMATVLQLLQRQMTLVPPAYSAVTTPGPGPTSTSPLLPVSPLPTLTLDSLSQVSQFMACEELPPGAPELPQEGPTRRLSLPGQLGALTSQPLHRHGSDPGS

Structure (SMILES): COC(=O)N[C@@H](C(=O)N1CCC[C@H]1C(=O)Nc1ccc(-c2ccc(NC(=O)[C@@H]3CCCN3C(=O)[C@H](NC(=O)OC)c3ccccc3)cc2)cc1)c1ccccc1 [Example 16, dimethyl(1S,1′S)-2,2′-((2S,2′S)-2,2′-(biphenyl-4,4′-diylbis(azandiyl))bis(oxomethylene)bis(pyrrolidine-2,1-diyl))bis(2-oxo-1-phenylethane-2,1-diyl)dicarbamate]
- IC50 (hERG): 9.8 µM
- EC50 (HCV (JFH-5aFlucm4); Huh-7.5.1): < 0.001 µM
- EC50 (HCV (JFH-5aFlucm4); Huh-7.5.1, 72 h, read-out: EC50 grade): < 0.001 µM
